Data: patent US5977319A, “Specific binding members for estradiol; materials and methods” (Cambridge Antibody Technology Limited, priority 1997, dated 1999)
pKd: −log10 of the molar value. Entries after “also recorded” stand apart in the source; their conditions may differ.

Legend:
[1] = target: antibody D12 single-chain Fv (VH SEQ ID NO:2, VL SEQ ID NO:12; clone 1C with Ala80-Val80 in the lambda light chain); assay: Equilibrium dialysis, competition of steroids with tritium labelled estradiol for antibody D12; format: binding, human; conditions: for pKd: D12 13.3 nM, 4 nM tritium labelled estradiol, competing steroid 100 nM to 100 μM, competitive inhibition assumed, read-out: affinities (dissociation constants) for cross-reactive steroids
Experimental: Dissociation constants were measured by equilibrium dialysis using conditions described for testosterone and estriol (FIG. 3 and the description of FIG. 3 given below). All steroids were tested at concentrations ranging from 10 nM to their solubility limits in PBS. The dissociation constants of antibody D12 for these compounds were calculated assuming that they were competitive inhibitors of estradiol binding.
Antibody D12 (13.3 nM) was incubated with 4 nM tritium labelled estradiol, plus competing steroid (100 nM to 100 μM). Pooled data from 3 experiments. Equilibrium dialysis was carried out for 20 hr at 22° C. in phosphate buffered saline with a membrane having a 12 kDa exclusion limit.
Antibody D12 (at a concentration of 13.3 nM) was incubated for 2 h with a mixture containing both tritium labelled estradiol (4 nM) and the competing steroid (100 nM to 100 μM), before equilibrium dialysis. The binding of other steroids to D12 antibody was quantified assuming competitive inhibition of estradiol binding. Data was analyzed with proprietary software (FIG.P package: Elsevier Biosoft).

[2] = system: antibody D12 single-chain Fv (VH SEQ ID NO:2, VL SEQ ID NO:12); assay: ELISA, inhibition of antibody binding to BSA-estradiol by soluble steroid; set-up: species or system human
Experimental: An ELISA-based screening method was used to rank different clones on the basis of their relative equilibrium dissociation constants for estradiol. In this assay, crude culture supernatant was equilibrated with soluble steroids at a range of concentrations (10 μM, 1 μM, 100 nM and zero estradiol) then applied to ELISA wells coated with […]. Affinity for the soluble steroid was then indicated by a reduction in ELISA signal intensity due to the antibody being in complex with the soluble ligand and unavailable for binding to the plate. This gives a reduction in ELISA signal.
The binding properties of other steroids were investigated by measuring their ability to compete with estradiol for binding to D12 antibody. This was investigated using the ELISA based screening method (Example 2b) and any cross-reacting compounds were investigated further by equilibrium dialysis.
Culture supernatant from the antibody clone D12 was equilibrated with soluble steroid at a range of concentrations from 5 nM to 100 mM (or the limit solubility of the steroid), then transferred to an ELISA plate coated with BSA-estradiol. The ELISA plate was then processed as for a standard phage ELISA assay. Affinity for the soluble competing steroid was then indicated by a reduction in ELISA signal intensity due to the antibody being in complex with the soluble ligand and unavailable for binding to the plate.

[3] = target: antibody D12 single-chain Fv (VH SEQ ID NO:2, VL SEQ ID NO:12; clone 1C with Ala80-Val80 in the lambda light chain); assay: Equilibrium dialysis, binding of tritium labelled estradiol to antibody D12; set-up: species or system human; conditions: 22° C., PBS, 20 hr, read-out: dissociation constant for estradiol
Experimental: Antibody diluted 4-fold to 200-fold was incubated with 50 pM tritium labelled estradiol plus unlabelled estradiol giving total estradiol concentrations from 100 pM to 100 μM. […] Equilibrium dialysis was carried out for 20 hr at 22° C. in phosphate buffered saline with a membrane having a 12 kDa exclusion limit.
Equilibrium dialysis was carried out at 22° C. in phosphate-bufferedsaline (PBS) using a microdialyzer (Hoefer) with a membrane having a 12 kDa exclusion limit. […] Antibody diluted 4-fold to 200-fold (from 0.7 nM to 33 nM, based on concentrations calculated from binding data) was incubated with 50 pM labelled estradiol (Amersham, tritium-labelled at positions 2,4,6,7,16,17) plus unlabelled estradiol to give total estradiol concentrations from 100 pM-100 μM. Mixtures were equilibrated for 2 h at 22° C. and dialysed against PBS for 20 h with constant mixing, before taking samples from each chamber for measurement of radioactivity.
Over the range of ligand concentrations necessary for affinity measurement (up to 100 nM), less than 10% of labelled estradiol bound non-specifically. After subtraction of non-specific binding, the dissociation constant (Kd) of estradiol binding to antibody D12 was calculated from equilibrium dialysis data using a non-linear least-squaresfit, assuming a single class of binding sites.

[4] = target: mouse monoclonal antibody DB3; conditions: read-out: dissociation constant; cited from earlier work
[5] = target: progesterone-binding antibody from a non immunised murine repertoire; conditions: cited from earlier work
[6] = soluble steroid 5 nM to 100 mM (or the limit solubility of the steroid)

C[C@]12CC[C@@H]3c4ccc(O)cc4CC[C@H]3[C@@H]1C[C@H](O)[C@@H]2O [16-epiestriol]
pKd [1]: 3.79 | inhibition of binding to BSA-estradiol in ELISA ([2]; soluble steroid at 100 μM): inhibited estradiol binding; also recorded: inhibited only at very high concentrations

C[C@]12CC[C@@H]3c4ccc(O)cc4CC[C@H]3[C@@H]1C[C@@H](O)[C@H]2O [17-epiestriol]
inhibition of binding to BSA-estradiol in ELISA ([2]; soluble steroid at 100 μM): inhibited estradiol binding; also recorded: inhibited only at very high concentrations

C[C@]12CC[C@@H]3c4ccc(O)cc4CC[C@H]3[C@@H]1C[C@@H](O)[C@@H]2O [Estriol, estriol]
inhibition of binding to BSA-estradiol in ELISA ([2]; soluble steroid at 30 μM): did not inhibit estradiol binding

C[C@]12CC[C@@H]3c4ccc(OS(=O)(=O)O)cc4CC[C@H]3[C@@H]1C[C@@H](O)[C@@H]2O [Estriol-3-sulphate]
inhibition of binding to BSA-estradiol in ELISA ([2]; soluble steroid at 100 μM): inhibited estradiol binding | inhibition of binding to BSA-estradiol in ELISA ([2]; soluble steroid at 100 μM, listed as Estriol-3 sulphate): inhibited only at very high concentrations

CC(C)CCC[C@@H](C)[C@H]1CC[C@H]2[C@@H]3CC=C4C[C@@H](O)CC[C@]4(C)[C@H]3CC[C@]12C [cholesterol]
inhibition of binding to BSA-estradiol in ELISA [2, 6]: neither cholesterol nor estriol-3-β-D-glucuronide inhibited; also recorded: did not show any inhibition

C[C@]12CCC(=O)C[C@@H]1CC[C@@H]1[C@@H]2CC[C@]2(C)[C@@H](O)CC[C@@H]12 [dihydrotestosterone]
inhibition of binding to BSA-estradiol in ELISA ([2]; soluble steroid at 30 μM): showed inhibition | inhibition of binding to BSA-estradiol in ELISA ([2]; soluble steroid at 30 μM, listed as Dihydrotestosterone): inhibited estradiol binding

C[C@]12CC[C@@H]3c4ccc(O)cc4CC[C@H]3[C@@H]1CC[C@@H]2O [estradiol, 1,3,5.estratriene 3,17 β-diol]
pKd [3]: 8.43

C[C@]12CC[C@@H]3c4ccc(O[C@@H]5O[C@H](C(=O)O)[C@@H](O)[C@H](O)[C@H]5O)cc4CC[C@H]3[C@@H]1C[C@@H](O)[C@@H]2O [estriol-3-β-D-glucuronide]
inhibition of binding to BSA-estradiol in ELISA [2, 6]: neither cholesterol nor estriol-3-β-D-glucuronide inhibited | inhibition of binding to BSA-estradiol in ELISA ([2]; soluble steroid 5 nM to 100 mM (or the limit solubility of the steroid), listed as Estriol-3-β-D-glucuronide): did not show any inhibition

CC(=O)[C@H]1CC[C@H]2[C@@H]3CCC4=CC(=O)CC[C@]4(C)[C@H]3CC[C@]12C [progesterone]
inhibition of binding to BSA-estradiol in ELISA ([2]; soluble steroid at 100 μM): inhibited estradiol binding; also recorded: inhibited only at very high concentrations | pKd [4]: ~9.00 | dissociation constant [5]: only micromolar

C[C@]12CC[C@H]3[C@@H](CCC4=CC(=O)CC[C@@]43C)[C@@H]1CC[C@@H]2O [testosterone]
selectivity for estradiol over the steroid [1]: approximately 1,000 fold | pKd [1]: 4.82 | inhibition of binding to BSA-estradiol in ELISA ([2]; soluble steroid at 30 μM): inhibited estradiol binding; also recorded: showed inhibition
